# Measured values published in patent US10335380B2, “Compounds suitable for the treatment of myeloproliferative neoplasms as well as methods for the diagnosis/prognosis of myeloproliferative neoplasms” (CNIC Fundacion Centro Nacional De investigaciones …, priority 2013, dated 2019).
# Entries after “also recorded” stand apart in the source; their conditions may differ.
# System: WT mice transplanted with control BM cells
# Assay: In vivo treatment of WT mice transplanted with control BM cells (normal haematopoiesis)
# Set-up: species or system mouse
# Method: Age-matched, female wild-type C57BL/6J or Nes-gfp mice were used as recipients in bone marrow (BM) transplantation assays and for in vivo pharmacological treatments. Lethally irradiated (12 Gy) recipient mice were transplanted with 2×10^6 BM cells from Mx-Cre;JAK2V617F mice induced with plpC 8 weeks before, or from Cre-negative mice as disease-free controls. […] Vehicle (saline solution) daily injections were performed in the same way. Unless indicated, treatment was initiated 4 weeks posttransplant, when animals evidenced peripheral blood signs of MPN. Mice were randomly distributed prior to treatment initiation, and disease development was monitored over time in peripheral blood samples, using an automated blood counter. […] Mice were sacrificed at different time points and subjected to complete necropsy; BM and spleen were analysed by histology and flow cytometry; femora and skull were used for immunostainings, and haematopoietic and stromal cells were additionally used for functional assays ex vivo.
# BM cell extraction, flow cytometry and fluorescence-activated cell sorting For haematopoietic cell recovery, bones were crushed in a mortar, filtered through a 40-μm mesh to obtain single cell suspensions, and depleted of red blood cells by lysis in 0.15 M NH4Cl for 10 min at 4° C. […] Biotinylated antibodies were detected with fluorochrome-conjugated streptavidin (BD Biosciences). […]
smiles,measurement,setting,value
"C[C@H](Cc1ccc(OCC(=O)O)cc1)NC[C@H](O)c1cccc(Cl)c1 [BRL37344, [4-[(2R)-2-[[(2R)-2-(3-clorophenyl)-2-hydroxyethyl]amino]propyl]phenoxy]acetic acid]",blood counts in wild-type mice,BRL37344 2 mg kg-1 i.p. twice a day,did not affect
same,normal HSCs / normal haematopoiesis,"long-term BRL37344 treatment, 16 weeks, 2 mg kg-1 twice a day i.p.",did not compromise; also recorded: does not compromise
